Reference: the Bradley open melting point set (2014)
Several values for one entry are separate records, joined by “and”; a condition that tells them apart may be missing. Equal entries are not always repeated.

In the case of `N#Cc1ccccc1S(=O)(=O)Cl` [2-cyanobenzenesulfonyl chloride], the melting point was 67 °C. Molecule `O=C1C=CCCC1` [2-cyclohexene-1-one] has a melting point of -53 °C. Work on `CCCCCCCCC(C)O` (stereo unspecified) [2-decanol] [listing 1 of 2 here] yielded a melting point of -2 °C. In the case of `CCCCCCCCC(C)O` (stereo unspecified) [2-decanol] [listing 2 of 2 here], the melting point was -5 °C. In the case of `CCCCCCCCC(C)=O` [2-decanone], the melting point was 3 °C. With `O=CC[C@H](O)[C@H](O)CO` [2-deoxy-D-ribose] the melting point was 85 °C. In the case of `CCOc1ccc2ccccc2c1C(=O)O` [2-ethoxy-1-naphthoic acid], the melting point was 144 °C. `CCC(CC)CO` [2-ethyl-1-butanol] showed a melting point of -52 °C. `CCc1ccccc1N` [2-ethylaniline] gave a melting point of -44 °C. `CCc1ccccc1B(O)O` [2-ethylbenzeneboronic acid] gave a melting point of 97 °C. In the case of `CCCCC(CC)C(=O)O` (stereo unspecified) [2-ethylhexanoic acid], the melting point was -59 °C. `CCc1ccccc1O` [2-ethylphenol] showed a melting point of -18 °C. Molecule `OB(O)c1ccc(C(F)(F)F)cc1F` [2-fluoro-4-(trifluoromethyl)benzeneboronic acid] has a melting point of 114 °C. `OB(O)c1cc(C(F)(F)F)ccc1F` [2-fluoro-5-(trifluoromethyl)benzeneboronic acid] showed a melting point of 107 °C. Work on `O=Cc1ccc(F)c(B(O)O)c1` [2-fluoro-5-formylbenzeneboronic acid] yielded a melting point of 170 °C. In the case of `O=C(O)c1c(F)cccc1C(F)(F)F` [2-fluoro-6-(trifluoromethyl)benzoic acid], the melting point was 86 °C. `OB(O)c1ccccc1F` [2-fluorobenzeneboronic acid] showed a melting point of 104 °C. For `O=C(Cl)c1ccccc1F` [2-fluorobenzoyl chloride], the melting point was 5 °C. In the case of `Fc1ccccc1-c1ccccc1` [2-fluorobiphenyl], the melting point was 74 °C. With `Oc1ccccc1F` [2-fluorophenol] the melting point was 15 °C. In the case of `O=C(O)c1ccnc(F)c1` [2-fluoropyridine-4-carboxylic acid], the melting point was 346 °C. `OB(O)c1cc2ccccc2nc1F` [2-fluoroquinoline-3-boronic acid] gave a melting point of 92 °C. Molecule `Cc1ccccc1F` [2-fluorotoluene] has a melting point of -87 °C. Work on `COc1ccc(O)c(C=O)c1` [2-hydroxy-5-methoxybenzaldehyde] yielded a melting point of 15 °C. Work on `O=C(CO)c1ccccc1` [2-hydroxyacetophenone] yielded a melting point of 6 °C. Molecule `N#Cc1ccccc1O` [2-hydroxybenzonitrile] has a melting point of 94 °C. With `OCC1COc2ccccc2O1` (stereo unspecified) [2-hydroxymethyl-1,4-benzodioxane] the melting point was 89 °C. In the case of `O=C(O)c1ccccc1I` [2-iodobenzoic acid], the melting point was 162 °C. Molecule `Sc1nccs1` [2-mercaptothiazole] has a melting point of 79 °C. With `COc1ccc2cc([N+](=O)[O-])ccc2c1C(=O)O` [2-methoxy-6-nitronaphthalene-1-carboxylic acid] the melting point was 187 °C. Work on `COc1ccccc1-c1ccccc1` [2-methoxybiphenyl] [listing 1 of 2 here] yielded a melting point of 30 °C. `COc1ccccc1-c1ccccc1` [2-methoxybiphenyl] [listing 2 of 2 here] showed a melting point of 31 °C. `COc1ncccc1B(O)O` [2-methoxypyridine-3-boronic acid] showed a melting point of 137 °C. For `CC(O)CC(C)(C)O` (stereo unspecified) [2-methyl-2,4-pentanediol], the melting point was -40 °C. `CC(C)(C)S` [2-methyl-2-propanethiol] gave a melting point of 1 °C. For `C#CC(C)(C)O` [2-methyl-3-butyn-2-ol], the melting point was 3 °C. `Cc1occc1C(=O)O` [2-methyl-3-furoic acid] gave a melting point of 98 °C. `CC1=C(c2ccccc2)c2ccccc2C1=O` [2-methyl-3-phenyl-1H-inden-1-one] gave a melting point of 87 °C. With `Cc1ccc([N+](=O)[O-])cc1N` [2-methyl-5-nitroaniline] the melting point was 107 °C. For `Cc1ccc2cc([N+](=O)[O-])ccc2n1` [2-methyl-6-nitroquinoline], the melting point was 164 °C. Work on `Cc1ccccc1B(O)O` [2-methylbenzeneboronic acid] yielded a melting point of 163 °C. `Cc1nc2ccccc2o1` [2-methylbenzoxazole] showed a melting point of 3 °C. `Cc1ccccc1-c1ccccc1` [2-methylbiphenyl] showed a melting point of 0 °C. Work on `CCCCCCCCCCCCCCCC(C)C` [2-methylheptadecane] yielded a melting point of 6 °C. For `Cc1ccccc1OCC(=O)O` [2-methylphenoxyacetic acid], the melting point was 154 °C. `CC(C)C=O` [2-methylpropanal] gave a melting point of -65 °C. In the case of `C=Cc1ccccc1C` [2-methylstyrene], the melting point was -69 °C. In the case of `Cc1cccs1` [2-methylthiophene], the melting point was -63 °C. In the case of `O=C(Oc1ccc2ccccc2c1)c1ccccc1` [2-naphthyl benzoate], the melting point was 107 °C. With `N#Cc1ccc(C(F)(F)F)cc1[N+](=O)[O-]` [2-nitro-4-(trifluoromethyl)benzonitrile] the melting point was 42 °C. `Cc1cccc(C)c1[N+](=O)[O-]` [2-nitro-m-xylene] showed a melting point of 15 °C. Work on `COc1ccccc1[N+](=O)[O-]` [2-nitroanisole] yielded a melting point of 10 °C. Molecule `O=Cc1ccccc1[N+](=O)[O-]` [2-nitrobenzaldehyde] has a melting point of 45 °C. With `O=[N+]([O-])c1ccccc1B(O)O` [2-nitrobenzeneboronic acid] the melting point was 150 °C. `O=[N+]([O-])c1ccccc1CO` [2-nitrobenzyl alcohol] gave a melting point of 72 °C. `O=[N+]([O-])c1ccccc1CBr` [2-nitrobenzyl bromide] gave a melting point of 47 °C. In the case of `O=[N+]([O-])c1ccccc1CCl` [2-nitrobenzyl chloride], the melting point was 49 °C. Work on `O=[N+]([O-])c1ccccc1CCl` [2-nitrobenzyl_chloride] yielded a melting point of 48 °C. Work on `O=C1Cc2c1cccc2[N+](=O)[O-]` [2-nitrobicyclo[4.2.0]octa-1,3,5-trien-7-one] yielded a melting point of 116 °C. With `O=[N+]([O-])c1ccccc1O` [2-nitrophenol] the melting point was 46 °C. Molecule `O=C(O)COc1ccccc1[N+](=O)[O-]` [2-nitrophenoxyacetic acid] has a melting point of 158 °C. `CCCCCCCC(C)O` (stereo unspecified) [2-nonanol] showed a melting point of -35 °C. Molecule `CCCCCCC(C)=O` [2-octanone] has a melting point of -16 °C. `CCCC(C)S` (stereo unspecified) [2-pentanethiol] showed a melting point of -112 °C. In the case of `OCCOc1ccccc1` [2-phenoxyethanol], the melting point was 13 °C. Work on `N#CC(=CNNc1ccccc1)c1ccccc1` [2-phenyl-3-(2-phenylhydrazino)prop-2-enenitrile] yielded a melting point of 156 °C. `CCC(C(=O)O)c1ccccc1` (stereo unspecified) [2-phenylbutyric acid] showed a melting point of 38 °C. With `OCCc1ccccc1` [2-phenylethanol] the melting point was -27 °C. With `OCc1ccccn1` [2-pyridinemethanol] the melting point was -6 °C. In the case of `CCC(C)c1cc([N+](=O)[O-])cc([N+](=O)[O-])c1O` (stereo unspecified) [2-sec-Butyl-4,6-dinitrophenol], the melting point was 55 °C. With `CCC(C)c1ccccc1O` (stereo unspecified) [2-sec-Butylphenol] the melting point was 12 °C. `CCCCCCCCCCCC(C)O` (stereo unspecified) [2-tridecanol] gave a melting point of 25 °C. Work on `CCCCCCCCCC(C)=O` [2-undecanone] yielded a melting point of 13 °C. `C=Cc1ccccc1B(O)O` [2-vinylbenzeneboronic acid] gave a melting point of 106 °C. `CC(=O)c1ccc(Cl)c(Cl)c1` [3',4'-dichloroacetophenone] showed a melting point of 74 °C. `CCC(=O)c1cc(F)c(O)c(F)c1` [3',5'-difluoro-4'-hydroxypropiophenone] gave a melting point of 130 °C. Molecule `COc1cc(C(C)=O)cc(OC)c1O` [3',5'-dimethoxy-4'-hydroxyacetophenone] has a melting point of 119 °C. Work on `CC(=O)c1ccc(F)c(Cl)c1` [3'-chloro-4'-fluoroacetophenone] yielded a melting point of 39 °C. `CC(=O)Nc1cccc(F)c1` [3'-fluoroacetanilide] gave a melting point of 88 °C. Work on `COc1cccc(C(C)=O)c1` [3'-methoxyacetophenone] yielded a melting point of -7 °C. In the case of `CC(=O)c1cccc([N+](=O)[O-])c1` [3'-nitroacetophenone], the melting point was 78 °C. In the case of `O=C(O)CCSCCC(=O)O` [3,3'-thiodipropionic acid], the melting point was 131 °C. `O=C(O)CC(F)(F)F` [3,3,3-trifluoropropionic acid] showed a melting point of 9 °C. `CC(=O)C(C)(C)C` [3,3-Dimethylbutan-2-one] gave a melting point of -52.5 °C. `C=CC(C)(C)C` [3,3-dimethyl-1-butene] gave a melting point of -115 °C. Molecule `CC(=O)C(C)(C)C` [3,3-dimethyl-2-butanone] has a melting point of -52 °C. `CC1(C)C=Nc2ccccc21` [3,3-dimethyl-3H-indole] showed a melting point of 228 °C. `CCC(C)(C)CC` [3,3-dimethylpentane] gave a melting point of -134 °C. Molecule `NCCC(c1ccccc1)c1ccccc1` [3,3-diphenylpropylamine] has a melting point of 27 °C. `CC(=O)OCC(OC(C)=O)C(OC(C)=O)C(OC(C)=O)C(OC(C)=O)C(=O)CBr` (stereo unspecified) [3,4,5,6,7-penta-O-acetyl-1-bromo-1-deoxyhept-2-ulose] gave a melting point of 124 °C. For `O=Cc1cc(F)c(F)c(F)c1` [3,4,5-trifluorobenzaldehyde], the melting point was 25 °C. In the case of `COc1cc(C=O)cc(OC)c1OC` [3,4,5-trimethoxybenzaldehyde], the melting point was 75 °C. In the case of `COc1cc(C#N)cc(OC)c1OC` [3,4,5-trimethoxybenzonitrile], the melting point was 94 °C. In the case of `COc1cc(C(=O)Cl)cc(OC)c1OC` [3,4,5-trimethoxybenzoyl chloride], the melting point was 80 °C. For `Nc1ccc(Cl)c(Cl)c1` [3,4-Dichloroaniline], the melting point was 72 °C. `O=C(O)c1ccc(Cl)c(Cl)c1` [3,4-Dichlorobenzoic acid] showed a melting point of 208 °C. `Oc1ccc(Cl)c(Cl)c1` [3,4-Dichlorophenol] gave a melting point of 67 °C. For `c1ccc2c(c1)cc1ccc3cccc4ccc2c1c34` [3,4-benzopyrene], the melting point was 179 °C. `Nc1ccncc1N` [3,4-diaminopyridine] showed a melting point of 219 °C. `O=[N+]([O-])/C=C/c1ccc(Cl)c(Cl)c1` [3,4-dichloro-beta-nitrostyrene] showed a melting point of 93 °C. In the case of `Nc1ccc(Cl)c(Cl)c1` [3,4-dichloroaniline], the melting point was 72 °C. Molecule `O=C(c1ccccc1)c1ccc(Cl)c(Cl)c1` [3,4-dichlorobenzophenone] has a melting point of 102 °C. In the case of `OCc1ccc(Cl)c(Cl)c1` [3,4-dichlorobenzyl alcohol], the melting point was 38 °C. For `O=[N+]([O-])c1ccc(Cl)c(Cl)c1` [3,4-dichloronitrobenzene], the melting point was 41 °C (2×) and 41.2 °C. In the case of `Oc1ccc(Cl)c(Cl)c1` [3,4-dichlorophenol] [listing 1 of 2 here], the melting point was 67 °C. In the case of `Oc1ccc(Cl)c(Cl)c1` [3,4-dichlorophenol] [listing 2 of 2 here], the melting point was 66 °C.
